According to publication PMC7496872 (Chemmedchem, 2020):

Columns and labels:
TLR2/1 = biological target: T1, TLR2/1 (Homo sapiens, UniProt O60603); assay: TLR2/1 (Pam3CSK4)-induced NF-κB/AP-1 SEAP reporter in HEK-Blue hTLR2 cells; assay type: cell-based; settings: for IC50 / TLR2-mediated NF-κB activation in primary screen, TLR2/1 (in words): Pam3CSK4 10 ng/mL; for IC50: HEK-Blue hTLR2 cells, n=3, 95 % confidence interval in brackets; for Pam3CSK4-induced TLR2/1 response (remaining): compound at 50 μM, 1 h pre-incubation, Pam3CSK4 10 ng/mL 24 h; for TLR2-mediated NF-κB activation in primary screen, TLR2/1 (in words): Figure 3A
T1 construct: host or cells: HEK-Blue hTLR2 cells
T1 sequence (O60603 21-784): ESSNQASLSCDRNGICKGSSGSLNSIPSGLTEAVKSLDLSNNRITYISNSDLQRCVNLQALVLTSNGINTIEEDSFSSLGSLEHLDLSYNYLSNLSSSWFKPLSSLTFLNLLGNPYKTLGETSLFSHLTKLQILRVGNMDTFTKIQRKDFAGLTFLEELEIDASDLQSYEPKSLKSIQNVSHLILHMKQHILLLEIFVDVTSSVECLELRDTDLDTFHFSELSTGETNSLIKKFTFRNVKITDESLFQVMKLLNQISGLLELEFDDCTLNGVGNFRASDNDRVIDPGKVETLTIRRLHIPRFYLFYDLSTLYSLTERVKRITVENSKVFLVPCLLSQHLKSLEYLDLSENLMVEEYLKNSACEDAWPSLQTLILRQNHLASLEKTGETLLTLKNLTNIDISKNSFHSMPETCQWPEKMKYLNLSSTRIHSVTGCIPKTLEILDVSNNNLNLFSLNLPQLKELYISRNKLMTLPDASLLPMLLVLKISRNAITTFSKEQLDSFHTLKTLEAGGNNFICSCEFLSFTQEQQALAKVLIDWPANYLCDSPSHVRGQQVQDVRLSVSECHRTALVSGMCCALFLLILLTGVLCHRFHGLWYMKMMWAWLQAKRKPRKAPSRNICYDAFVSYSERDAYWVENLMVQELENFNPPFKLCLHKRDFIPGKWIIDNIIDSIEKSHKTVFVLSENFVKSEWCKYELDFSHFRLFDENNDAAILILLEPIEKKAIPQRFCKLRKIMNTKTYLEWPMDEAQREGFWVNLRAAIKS
Method: (§1) Figure 3 Inhibition of TLR2‐dependent NF‐κB activation and IL‐8 secretion. A) HEK‐Blue hTLR2 cells were pre‐incubated with CU‐CPT22 or compounds 1–6 and 9–11 for 1 h and then stimulated additionally with TLR2/1 agonist Pam3CSK4 (10 ng/mL) or TLR2/6 agonist Pam2CSK4 (1 ng/mL) for 24 h. B) HEK‐Blue hTLR2 cells were pre‐incubated with increasing concentrations of 4, 6, 9, 10 and then stimulated additionally with Pam3CSK4 or Pam2CSK4 for 24 h. Supernatants were tested for TLR2‐mediated NF‐κB/AP‐1 activity by quantification of SEAP release (OD640). C) THP‐1 macrophages were incubated with CU‐CPT22 (25 μM) or compound 6 for 1 h and afterwards stimulated with Pam3CSK4 (10 ng/mL), Pam2CSK4 (1ng/mL), LPS (10 ng/mL), flagellin (1 μg/mL), CL075 (8 μM) or ODN2006 (5 μM) for 24 h. Supernatants were analyzed for IL‐8 secretion by ELISA. Mean+SD or ±SD (n=3).
(§2) Cell culture: Human embryonic kidney (HEK)‐Blue hTLR2 cells (InvivoGen, Touluse, France) were used from passage 5 to 20. Stimulation of the cells with TLR2 agonists leads to production and secretion of NF‐κB‐inducible embryonic alkaline phosphatase (SEAP). The enzyme transforms the substrate QUANTI‐Blue (InvivoGen) into a blue dye that was detected by optical density (OD) at 640 nm as previously described.11a, 12 THP‐1 cells (DSMZ, Braunschweig, Germany) from passage 10 to 15 were cultured as previously reported.13 For the generation of THP‐1 macrophages, THP‐1 monocytes were first incubated with 25 ng/mL Phorbol 12‐myristate 13‐acetate (PMA, Sigma‐Aldrich) for 48 h and afterwards rested for 24 h. The cell lines were cultured at 37 °C in a humidified atmosphere of 5 % CO2 and 95 % air and were regularly tested negative for mycoplasma contamination (VenorGeM Classic Mycoplasma PCR detection kit, Minerva Biolabs, Berlin, Germany).
(§3) Cell stimulation: HEK‐Blue hTLR2 cells (4×10^4 cells/well) and THP‐1 macrophages (2×10^5 cells/well) were cultured in 96‐well plates and 24‐well plates (TPP, Trasadingen, Switzerland). After cells were washed with phosphate‐buffered saline (PBS, Sigma‐Aldrich), cell stimulation was done in OptiMEM (ThermoFisher Scientific). The tested compounds and CU‐CPT22 (50 mM) were dissolved in DMSO. Final DMSO concentrations in cell culture were below 0.2 % (v/v). […] For co‐stimulation of TLR2 agonists and tested modulators, cells were preincubated with the compounds or CU‐CPT22 for 1 h and afterwards stimulated with the agonists.
(§4) Statistical analysis: Data of the bar charts are shown as mean+SD. Potency (IC50) data are presented as mean with the confidence interval (95 %). Statistical analysis was done by using GraphPad Prism 6.0 (GraphPad software, San Diego, USA). Nonlinear regression was used to plot and analyze concentration‐response curves and to obtain IC50 values.

TLR2/6 = biological target: T2, TLR2/6 (Homo sapiens, UniProt O60603); assay: TLR2/6 (Pam2CSK4)-induced NF-κB/AP-1 SEAP reporter in HEK-Blue hTLR2 cells; assay type: cell-based; settings: for IC50 / TLR2-mediated NF-κB activation in primary screen, TLR2/6 (in words): Pam2CSK4 1 ng/mL; for IC50: HEK-Blue hTLR2 cells, n=3, 95 % confidence interval in brackets; for Pam2CSK4-induced TLR2/6 response (remaining): compound at 50 μM, 1 h pre-incubation, Pam2CSK4 1 ng/mL 24 h; for TLR2-mediated NF-κB activation in primary screen, TLR2/6 (in words): Figure 3A
T2 construct: host or cells: HEK-Blue hTLR2 cells
T2 sequence (O60603 21-784): as above
Method: as §1, §2, §3, §4

HEK-Blue hTLR2 cells = assay: Cell viability by MTT assay; assay type: cell-based, human; settings: 24 h
Method: Cell viability: Cell viability was assessed by the MTT assay in HEK Blue hTLR2 cells as previously described.14 10 % (v/v) DMSO (Carl Roth) served as control and the viability of untreated cells was defined as 100 %.
(§5) 1.1 Supplementary Figure 1: Agonistic activity and cell viability […]
(§6) up to 50 µM. (A) HEK-Blue hTLR2 cells were stimulated with Pam3CSK4 (10 ng/ml) or the compounds 1-9 for 24 h. SEAP production was detected by QUANTI-Blue as OD at 640 nm. (B) HEK-Blue hTLR2 cells were stimulated with DMSO (10% v/v) or the compounds for 24 h. Cell viability was determined by MTT assay and normalized to unstimulated cells (dashed line). Mean +SD (n=3).
(1 picture or pasted object on this page, not shown here)

[1] = Chemical stability toward oxidation; assay type: physicochemical; settings: aerobic conditions; 7 and 8 on debenzylation of the protected intermediates
From the text: Aromatic ketone 5, in which the amide linker between two benzene rings is replaced by a ketomethylene unit, was obtained via the direct C‐acylation of resorcinol (1,3‐diphenol) with 3,4‐dimethoxy‐phenyl acetic acid using boron trifluoride diethyl etherate as the activating Lewis acid in 19 % yield. Compounds 1–6 were isolated with >95 % purity by column chromatography. Synthesis of the trihydroxy‐derivatives, ethyl 3‐(2,3,4‐trihydroxy‐benzamido)benzoate 7 and ethyl 3‐(3,4,5‐trihydroxy‐benzamido)benzoate 8 was attempted following the same strategy as in Scheme 2. […] 7 and 8 therefore could not be isolated and tested biologically.

TLR2 = biological target: T3, TLR2 (Homo sapiens, UniProt O60603); assay: Agonistic TLR2 activity, SEAP production in HEK-Blue hTLR2 cells; assay type: cell-based; settings: compounds alone for 24 h, SEAP OD 640 nm
T3 construct: host or cells: HEK-Blue hTLR2 cells
T3 sequence (O60603 21-784): as above
Method: as §2, §5
as §6, with “(n=3). […]” for “(n=3).”

other TLR subtypes = assay: IL-8 secretion (ELISA) in THP-1 macrophages stimulated with agonists of other TLRs; assay type: cell-based, human; settings: LPS, flagellin, CL075 or ODN2006 for 24 h
Method: as §1, with “C) THP‐1 macrophages were incubated with CU‐CPT22 (25 μM) or compound 6 for 1 h and afterwards stimulated with Pam3CSK4 (10 ng/mL), Pam2CSK4 (1ng/mL), LPS (10 ng/mL), flagellin (1 μg/mL), CL075 (8 μM) or ODN2006 (5 μM) for 24 h.” left out, “Mean+SD or ±SD (n=3).” left out
Cell culture: Human embryonic kidney (HEK)‐Blue hTLR2 cells (InvivoGen, Touluse, France) were used from passage 5 to 20. […] The enzyme transforms the substrate QUANTI‐Blue (InvivoGen) into a blue dye that was detected by optical density (OD) at 640 nm as previously described.11a, 12 THP‐1 cells (DSMZ, Braunschweig, Germany) from passage 10 to 15 were cultured as previously reported.13 For the generation of THP‐1 macrophages, THP‐1 monocytes were first incubated with 25 ng/mL Phorbol 12‐myristate 13‐acetate (PMA, Sigma‐Aldrich) for 48 h and afterwards rested for 24 h. […]
ELISA: Commercially available ELISA kits were used for detecting human IL‐8 levels in cell culture supernatants (ELISA‐Ready Set Go, Invitrogen by Thermo Fisher Scientific).

IC50 (TLR2/1) [µM] | Pam3CSK4-induced TLR2/1 response (remaining) (TLR2/1) | IC50 (TLR2/6) [µM] | chemical stability / sensitivity to oxidation [1] | SMILES | TLR2-mediated NF-κB activation in primary screen, TLR2/1 (in words) (TLR2/1) | TLR2-mediated NF-κB activation in primary screen, TLR2/6 (in words) (TLR2/6) | also measured
– | – | – | instantaneous decomposition | CCOC(=O)c1cccc(NC(=O)c2cc(O)c(O)c(O)c2)c1 [Compound 8, ethyl 3‐(3,4,5‐trihydroxy‐benzamido)benzoate] | – | – | –
– | – | – | instantaneous decomposition | CCOC(=O)c1cccc(NC(=O)c2ccc(O)c(O)c2O)c1 [Compound 7, ethyl 3‐(2,3,4‐trihydroxy‐benzamido)benzoate] | – | – | –
15.4 | less than 40% | 13.6 | chemically stable | CCOC(=O)c1cccc(NC(=O)c2cc(O)cc(O)c2)c1 [Compound 6, Ethyl 3‐(3,5‐dihydroxy‐benzamido)benzoate] | abrogated the TLR2 response of both heterodimers almost completely | abrogated the TLR2 response of both heterodimers almost completely | agonistic TLR2 activity (TLR2): no agonistic activity; influence on other TLR subtypes (IL-8 secretion) (other TLR subtypes): no influence on other TLR subtypes; cytotoxic effects / cell viability (in words) (HEK-Blue hTLR2 cells): nontoxic; lowest concentration reducing cell viability (HEK-Blue hTLR2 cells): > 50 µM

More lines, now with the values behind:

SMILES | IC50 (TLR2/1) [µM] | Pam3CSK4-induced TLR2/1 response (remaining) (TLR2/1) | IC50 (TLR2/6) [µM] | chemical stability / sensitivity to oxidation [1] | TLR2-mediated NF-κB activation in primary screen, TLR2/1 (in words) (TLR2/1) | TLR2-mediated NF-κB activation in primary screen, TLR2/6 (in words) (TLR2/6) | also measured
CCOC(=O)c1ccc(CC(=O)c2c(C)cc(O)cc2O)o1 [Compound 10] | 44 | less than 40% | 40.7 | – | – | – | Pam2CSK4-induced TLR2/6 response (remaining) (TLR2/6): less than 50%
COC(=O)c1ccc(CC(=O)c2ccc(O)cc2O)o1 [Compound 9] | 42.4 | less than 40% | 42.9 | – | – | – | Pam2CSK4-induced TLR2/6 response (remaining) (TLR2/6): less than 50%
CCCc1cc(C(=O)Cc2ccc(C(=O)OCC)o2)c(O)cc1O [Compound 11] | – | – | – | – | abrogated the TLR2 response of both heterodimers almost completely | abrogated the TLR2 response of both heterodimers almost completely | cytotoxic effects / cell viability (in words) (HEK-Blue hTLR2 cells): cytotoxic; lowest concentration reducing cell viability (HEK-Blue hTLR2 cells): 50 µM
CCOC(=O)c1cccc(NC(=O)c2ccc(O)cc2O)c1 [Compound 1, Ethyl 3‐(2,4‐dihydroxy‐benzamido)benzoate] | – | – | – | – | Except for 1, all selected compounds decreased | Except for 1, all selected compounds decreased | –
CCOC(=O)c1cccc(NC(=O)Cc2ccc(OC)c(OC)c2)c1 [Compound 4, Ethyl 3‐(2‐(3,4‐dimethoxyphenyl)acetamido)benzoate] | 44.9 | less than 40% | 61.9 | – | – | – | –
